Test [1] deals with 2,3-Epoxisqualen-Lanosterol-Cyclase. Put plainly: In-vivo effect in the rat after oral administration: 2,3-epoxysqualene level in the liver. Set-up: species or system Ratte. The method, then: II. Messung der in-vivo Wirkung an der Ratte nach oraler Gabe
Die Inhibierung des Enzyms 2,3-Epoxisqualen-Lanosterol-Cyclase bewirkt eine Erhöhung der 2,3-Epoxisqualenspiegel in Leber und Plasma. Die Menge an gebildetem 2,3-Epoxisqualen dient daher als direktes Maß für die Wirkstärke am Ganztier.Die Bestimmung wurde nach der in J. Lipid. Res. 38, 564-575, [1997] beschriebenen Methode nach t = 3 bzw. 8 Stunden nach Substanzgabe mit Konzentrationen von c = 0.01, 0.03, 0.1, 0.3 und 1.0 mg/kg durchgeführt. In der folgenden Tabelle 3 sind beispielhaft die Ergebnisse für die vorstehend erwähnten Substanzen A, B, C, D, E, G, H, I und K angegeben.

Test [2] addresses T1, ^14C-Acetat-Einbau in die mit Digitonin fällbaren Steroide (Homo sapiens, UniProt P48449).
T1 sequence (P48449 2-732): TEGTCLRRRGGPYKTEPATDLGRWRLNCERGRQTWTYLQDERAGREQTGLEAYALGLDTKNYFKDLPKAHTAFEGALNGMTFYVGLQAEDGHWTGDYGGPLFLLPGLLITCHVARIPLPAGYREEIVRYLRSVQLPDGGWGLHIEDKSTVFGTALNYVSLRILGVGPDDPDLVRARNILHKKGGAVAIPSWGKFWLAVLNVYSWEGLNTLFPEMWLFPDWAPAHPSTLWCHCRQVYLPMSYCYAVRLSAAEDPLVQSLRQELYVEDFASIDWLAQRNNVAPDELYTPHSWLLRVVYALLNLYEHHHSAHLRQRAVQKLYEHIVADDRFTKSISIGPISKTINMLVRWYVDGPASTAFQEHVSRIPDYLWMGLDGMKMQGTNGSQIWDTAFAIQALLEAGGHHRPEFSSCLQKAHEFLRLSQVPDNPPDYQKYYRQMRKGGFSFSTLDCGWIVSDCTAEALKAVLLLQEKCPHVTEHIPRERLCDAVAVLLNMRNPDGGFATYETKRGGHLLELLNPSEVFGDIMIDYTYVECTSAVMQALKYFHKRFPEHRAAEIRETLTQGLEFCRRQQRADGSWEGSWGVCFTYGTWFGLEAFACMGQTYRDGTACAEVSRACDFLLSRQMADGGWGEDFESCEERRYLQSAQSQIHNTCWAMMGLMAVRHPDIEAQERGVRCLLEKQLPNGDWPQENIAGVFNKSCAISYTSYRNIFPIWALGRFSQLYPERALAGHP
The experiment in a line: Inhibition of 14C-acetate incorporation into digitonin-precipitable steroids. It counts as cell-based. The following applies: read-out: Prozentwerte, um die die Verbindungen den ^14C-Acetat-Einbau hemmen. An excerpt: I. Messung der Hemmung des ^14C-Acetat-Einbaus in die mit Digitonin fällbaren Steroide:
Die Untersuchung der Hemmwirkung wurde nach der in J. Lipid. Res. 37, 148-157 [1996] beschriebenen Methode bei Testkonzentrationen von 10^-8 und 10^-9 Mol/l durchgeführt.
Die Prozentwerte, um die obigen Verbindungen den ^14C-Acetat-Einbau hemmen, sind in Tabelle 1 angegeben.

The test system of a further test is Rhod. rubra 49. Put plainly: Fungistatic effect, serial dilution test (microtitre system). The format is cell-based. To be noted: read-out: MHK. As to the method: (§1) IV. Bestimmung der fungistatischen Wirkung
(§2) Die fungistatische Wirkung wurde über den Reihenverdünnungstest (Mikrotitersystem) bestimmt. Als Nährmedium diente Sabouraud-Bouillon. Das Inoculum betrug ca. 10^4 bis 10^5 KBE/ml (KBE = koloniebildende Einheiten); die Bebrütungszeit betrug 2 bis 4 Tage bei 26°C.
(§3) Es wurde die niedrigste Konzentration, die sichtbares Wachstum nicht mehr zuließ (minimale Hemmkonzentration MHK), bestimmt.
(§4) Geprüft wurden die vorstehend erwähnten Verbindungen A, B, D, E, F, H, I, K, L und M. Die Ergebnisse sind in der folgenden Tabelle 5 zusammengefaßt. Die MHK ist in µg/ml angegeben.

In test [3] the test system is Trich. mentagrophytes ATCC 9129. The description is as above. The following applies: Trichophyton mentagrophytes. The format is cell-based. As to the method:
as §1, §2, §3, §4

Test [4] deals with Sacch. carlsbergensis ATCC 9080. The description is as above. The following applies: Saccharomyces pastorianus. The format is cell-based. As to the method: as §1, §2, §3, §4
Another test concerns Pen.notatum CBS 19746. The test is described as above. It counts as cell-based. The following applies: Penicillium chrysogenum. The method, then: as §1, §2, §3, §4
A further test relates to Asp. niger ATCC 16404. Described as above. It counts as cell-based. To be noted: Aspergillus niger. The method, then:
as §1, §2, §3, §4

The test system of test [5] is Cand. albicans ATCC 10231. The description is as above. The format is cell-based. The following applies: Candida albicans. As to the method: as §1, §2, §3, §4
Test [6] is described as follows: Lipid lowering in the normolipaemic golden hamster. The format is in vivo, Goldhamster. The following applies: compared with control group fed without test substance. The text has this:
III. Lipidsenkung am normolipämischen Goldhamster.
Diese Bestimmung wurde nach der in J. Lipid. Res. 38, 564-575, (1997) beschriebenen Methode durchgeführt. Am Ende des Versuchs wurde Gesamtcholesterol, β-Lipoprotein-Cholesterol sowie HDL-Cholesterol bestimmt und mit den Werten einer ohne Testsubstanz gefütterten Kontrollgruppe verglichen.

Where a name gives a salt, the structure may show the parent alone. Read-outs that look alike come from different tables or passages of the source.

With `Cc1ccc(OC(=O)N2CCC(Cc3ccc(CN(C)C)cc3)CC2)cc1.Cl` [K, 4-[4-(Dimethylaminomethyl)benzyl] -N-(4-methylphenoxy)-carbonylpiperidin-hydrochlorid], the “2,3-Epoxysqualen-Konzentration in der Leber (Ratte)” value (from here on “2,3-Epoxysqualen-Konzentration”) in test [1] (c = 0.1 mg/kg, t = 3 h) is 0.4 µg/g; in test [1] (c = 0.1 mg/kg, t = 8 h), 0.4 µg/g; in [1] (c = 1.0 mg/kg, t = 3 h), 24.0 µg/g; in test [1] (c = 1.0 mg/kg, t = 8 h), 5.5 µg/g. Moreover, the inhibition at 0.001 µM in [2] is 49%. Further, in test [2], the inhibition at 0.01 µM is 82%. In addition, the MIC in the test with Rhod. rubra 49 worked out at 64 µg/mL; in [3] (ATCC9129, read-out: MHK), 8 µg/mL; in test [4] (ATCC9080, read-out: MHK) it was 512 µg/mL; in the test on Pen.notatum CBS 19746 (CBS19746, read-out: MHK) it was 256 µg/mL; in the test with Asp. niger ATCC 16404 (ATCC16404, read-out: MHK) it was 64 µg/mL; in test [5] (ATCC10231, read-out: MHK), 64 µg/mL. Also, the Gesamtcholesterol in test [6] (Dosis 54.2 mg/kg/Tag) is listed as -6.8%. Moreover, the HDL-Cholesterol in [6] (Dosis 54.2 mg/kg/Tag) amounted to 2.3%. Also, the β-Lipoprotein-Cholesterol in test [6] (Dosis 54.2 mg/kg/Tag) is -21.2%.
Take `CN(C)Cc1ccc(CC2CCN(C(=O)Oc3ccc(F)cc3)CC2)cc1` [M, 4-[4-(Dimethylaminomethyl)benzyl]-N-(4-fluorphenoxy)-carbonylpiperidin-hydrochlorid]: the inhibition at 0.001 µM in test [2] worked out at 59%. Also, the inhibition at 0.01 µM in [2] was 84%. Moreover, the MIC in the test on Rhod. rubra 49 stood at 32 µg/mL; in test [3] (ATCC9129, read-out: MHK) it was 2 µg/mL; in test [4] (ATCC9080, read-out: MHK) it was 512 µg/mL; with Pen.notatum CBS 19746 (CBS19746, read-out: MHK) it was 512 µg/mL; in the test on Asp. niger ATCC 16404 (ATCC16404, read-out: MHK) it was 64 µg/mL; in [5] (ATCC10231, read-out: MHK), 128 µg/mL. Besides, the Gesamtcholesterol in test [6] (Dosis 57.5 mg/kg/Tag) was -26.8%. In addition, the HDL-Cholesterol in test [6] (Dosis 57.5 mg/kg/Tag) is -20.4%. Moreover, the β-Lipoprotein-Cholesterol in test [6] (Dosis 57.5 mg/kg/Tag) was -31.6%.
Turning to `CN(C)Cc1ccc(CC2CCN(C(=O)Oc3ccc(Cl)cc3)CC2)cc1` [Verbindung H, N-(4-Chlorphenoxy)carbonyl-4-[4-(dimethylaminomethyl)-benzyl]piperidin-hydrochlorid], the “2,3-Epoxysqualen-Konzentration” value in test [1] (c = 0.1 mg/kg, t = 3 h) is 1.0 µg/g; in test [1] (c = 0.1 mg/kg, t = 8 h), 0.8 µg/g; in test [1] (c = 1.0 mg/kg, t = 3 h) it was 56.3 µg/g; in test [1] (c = 1.0 mg/kg, t = 8 h), 20.7 µg/g. In test [2], the inhibition at 0.001 µM is 45%. For the same compound, the inhibition at 0.01 µM in test [2] is 80%. The MIC with Rhod. rubra 49 amounted to 16 µg/mL; in [3] (ATCC9129, read-out: MHK) it was 1 µg/mL; in [4] (ATCC9080, read-out: MHK) it was 128 µg/mL; with Pen.notatum CBS 19746 (CBS19746, read-out: MHK), 64 µg/mL; with Asp. niger ATCC 16404 (ATCC16404, read-out: MHK), 32 µg/mL; in test [5] (ATCC10231, read-out: MHK), 64 µg/mL. Also, the values for the Gesamtcholesterol in [6] (Dosis 6.5 mg/kg/Tag), in [6] (Dosis 19.9 mg/kg/Tag) and in test [6] (Dosis 62.3 mg/kg/Tag) were -8.3%, -11.0% and -32.1%, respectively. The HDL-Cholesterol in [6] (Dosis 6.5 mg/kg/Tag) is -3.4%; in [6] (Dosis 19.9 mg/kg/Tag), -8.2%; in test [6] (Dosis 62.3 mg/kg/Tag), -28.5%. Also, the β-Lipoprotein-Cholesterol in test [6] (Dosis 6.5 mg/kg/Tag) was -13.0%; in test [6] (Dosis 19.9 mg/kg/Tag), -13.2%; in test [6] (Dosis 62.3 mg/kg/Tag) it was -33.7%.
In the case of `CN(C)Cc1ccc(CC2CCN(C(=O)OCc3ccccc3)CC2)cc1.Cl` [Verbindung I, N-Benzyloxycarbonyl-4-[4-(dimethylaminomethyl)benzyl]-piperidin-hydrochlorid], the “2,3-Epoxysqualen-Konzentration” value in test [1] (c = 0.1 mg/kg, t = 3 h) is given as 1.0 µg/g; in test [1] (c = 1.0 mg/kg, t = 3 h), 26.1 µg/g; in test [1] (c = 1.0 mg/kg, t = 8 h), 10.0 µg/g. Also, the inhibition at 0.01 µM in [2] (Testkonzentration 10^-8 Mol/l) came to 85%. Further, the inhibition at 0.001 µM in test [2] (Testkonzentration 10^-9 Mol/l) is 47%. Also, the MIC in the test on Rhod. rubra 49 (Rhod., Sabouraud-Bouillon, 2 bis 4 Tage bei 26°C) is 64 µg/mL; in test [3] (ATCC9129, Trich., Sabouraud-Bouillon, 2 bis 4 Tage bei 26°C, read-out: MHK), 4 µg/mL; in [4] (ATCC9080, Sacc., Sabouraud-Bouillon, 2 bis 4 Tage bei 26°C, read-out: MHK), 512 µg/mL; with Pen.notatum CBS 19746 (CBS19746, Pen., Sabouraud-Bouillon, 2 bis 4 Tage bei 26°C, read-out: MHK), 128 µg/mL; in the test on Asp. niger ATCC 16404 (ATCC16404, Asp., Sabouraud-Bouillon, 2 bis 4 Tage bei 26°C, read-out: MHK) it was 64 µg/mL; in test [5] (ATCC10231, Cand., Sabouraud-Bouillon, 2 bis 4 Tage bei 26°C, read-out: MHK), 256 µg/mL. Further, in test [6] (Dosis 47.1 mg/kg/Tag), the Gesamtcholesterol is -23.1%. Further, in test [6] (Dosis 47.1 mg/kg/Tag), the HDL-Cholesterol is on record as -17.6%. For the same compound, in test [6] (Dosis 47.1 mg/kg/Tag), the β-Lipoprotein-Cholesterol is reported as -32.9%.
